This is an account of results in patent US4948797A, “2,2-disubstitued 2,3-dihydro-1,4-benzodioxin derivatives having hypotensive activity” (Istituto Luso Farmaco d'Italia S.p.A., priority 1988, dated 1990).

One data set deals with SHR rat. As to the kind of experiment: anti-hypertensive activity in the SHR rat by oral route (with heart rate). In kind it is in vivo. The source says:
(§1) Bremner, Eur. J. Pharmacol 55, 323 (1979) and D. C. U. Prichard et al, Mol. Pharmacol 13, 454 (1977), while in vivo they seem to have a low toxicity and a good and durable anti-hypertensive activity, determined in the SHR rat by oral route, with the method reported by J Pfeffer et al, J. Lab. Clin. Med. 78, 957 (1971).

Data set [1] is described as follows: toxicity, expressed as LD50, oral. As to conditions: in vivo.
The target in the next data set is α1 receptors. In words: in vitro affinity for the α1 receptors, determined in respect of [^3 H]-Prazosin. It is filed as binding.
Source text: as §1

The target of the next data set is α2 receptors. In words: in vitro action on the α2 receptors, determined in respect of [^3 H]-Clonidine. It is filed as binding.
Source text: as §1

pIC50: −log10 of the molar value.

The LD50 is the dose at which mortality reaches 50%. A higher LD50 goes with a less toxic substance. The pIC50 is −log10 of the IC50, conventionally taken in molar units. Low readings indicate a high IC50, high ones a low IC50. Regarding `CC1(C(O)CN2CCC(n3c(=O)[nH]c4ccccc43)CC2)COc2ccccc2O1` (racemic) [1-[2-(2,3-dihydro-2-methyl-1,4-benzodioxin-2-yl)-2-hydroxy-ethyl]-4-piperidinyl]-1,3-dihydro-2H-benzimidazol-2-one], the “effect on heart rate” value in the data set on SHR rat (20 mg/kg/os dosage) is listed as “without significantly varying the heart rate”. For the same compound, the “reduction of the pressure” value in the data set with SHR rat (SHR rat, 20 mg/kg/os dosage) is given as 21%. This compound also registered an LD50 in data set [1] of roughly 1000 mg/kg. The negative logarithm of the IC50 (pIC50) against α1 receptors is 7.26; at α2 receptors it was 4.74.

Consider `COc1cc2nc(N3CCN(CC(O)C4(C)COc5ccccc5O4)CC3)nc(N)c2cc1OC.Cl` (stereo not shown) [1-(4-amino-6,7-dimethoxyquinazolin-2-yl)-4-[2-(2,3-dihydro-2-methyl-1,4-benzodioxin-2-yl)-2-hydroxyethyl]-piperazine hydrochloride], for which the “effect on heart rate” value in the data set with SHR rat (30 mg/kg/os dosage) is “without significantly modifying the heart rate”. In the data set on SHR rat (SHR rat, 30 mg/kg/os dosage), the “reduction in the pressure” value came to 20%. The same compound returned an LD50 in data set [1] greater than 2000 mg/kg. Further, the pIC50 was 8.44 on α1 receptors and less than 5.00 against α2 receptors.
